{"source": "patent EP4417602A1", "about": "“SUBSTITUTED PYRAZOLE CARBOXAMIDES, SALTS THEREOF AND THEIR USE AS HERBICIDALLY ACTIVE SUBSTANCES” (Bayer AG, priority 2023, dated 2024)", "key": {"[1]": {"system": "ECHCG", "assay": "A. Herbicidal pre-emergence action on harmful plants (Tables A)", "format": "in vivo, Echinochloa crus-galli", "conditions": "visual grading after ca. 3 weeks vs untreated controls, 100% = plants have died off, 0% = as control plants", "how_it_was_run": "(§1)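 Values are visual percent damage relative to untreated controls, scored ca. 3 weeks after the compound was sprayed on the covering soil of sown pots (sandy loam) at rates up to 1280 g/ha, formulated as WP or EC with 0.5% additive.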"}, "[2]": {"system": "LOLRI", "assay": "A. Herbicidal pre-emergence action on harmful plants (Tables A)", "format": "in vivo, Lolium rigidum", "conditions": "visual grading after ca. 3 weeks vs untreated controls, 100% = plants have died off, 0% = as control plants", "how_it_was_run": "as §1"}, "[3]": {"system": "MATIN", "assay": "A. Herbicidal pre-emergence action on harmful plants (Tables A)", "format": "in vivo, Matricaria inodora", "conditions": "visual grading after ca. 3 weeks vs untreated controls, 100% = plants have died off, 0% = as control plants", "how_it_was_run": "as §1"}, "[4]": {"system": "SETVI", "assay": "A. Herbicidal pre-emergence action on harmful plants (Tables A)", "format": "in vivo, Setaria viridis", "conditions": "visual grading after ca. 3 weeks vs untreated controls, 100% = plants have died off, 0% = as control plants", "how_it_was_run": "as §1"}, "[5]": {"system": "STEME", "assay": "A. Herbicidal pre-emergence action on harmful plants (Tables A)", "format": "in vivo, Stellaria media", "conditions": "visual grading after ca. 3 weeks vs untreated controls, 100% = plants have died off, 0% = as control plants", "how_it_was_run": "as §1"}, "[6]": {"system": "POAAN", "assay": "A. Herbicidal pre-emergence action on harmful plants (Tables A)", "format": "in vivo, Poa annua", "how_it_was_run": "as §1"}, "[7]": {"system": "AMARE", "assay": "A. Herbicidal pre-emergence action on harmful plants (Tables A)", "format": "in vivo, Amaranthus retroflexus", "conditions": "application rate 1280 g/ha; visual grading after ca. 3 weeks vs untreated controls; 100% = plants have died off, 0% = as control plants", "how_it_was_run": "as §1"}, "[8]": {"system": "ALOMY", "assay": "A. Herbicidal pre-emergence action on harmful plants (Tables A)", "format": "in vivo, Alopecurus myosuroides", "how_it_was_run": "as §1"}, "[9]": {"system": "VERPE", "assay": "A. Herbicidal pre-emergence action on harmful plants (Tables A)", "format": "in vivo, Veronica persica", "conditions": "application rate 1280 g/ha; Table A11", "excerpt": "Seeds of mono- and dicotyledonous weed plants were sown in plastic pots (double sowings with one species of mono- and one species of dicotyledonous weed plants per pot), in sandy loam, and covered with soil. The compounds according to the invention, formulated in the form of wettable powders (WP) or as emulsifiable concentrates (EC), were applied to the surface of the covering soil as aqueous suspension or emulsion, with the addition of 0.5% of an additive, at an application rate of 6001 of water per hectare (converted). Following treatment, the pots were placed in a greenhouse and kept under optimum growth conditions for the test plants. The visual grading of the damage to the test plants was carried out after ca. 3 weeks in comparison to untreated controls (herbicidal effect in percent (%): 100% effect = plants have died off, 0% effect = as control plants). Tables A1 to A12, below, show the effects of selected compounds of the general formula (I) according to table 1 on various harmful plants and an application rate corresponding to 1280 g/ha or below obtained by the experimental procedure mentioned above. Table A1: pre-emergence activity at 1280g/ha against ABUTH in %"}, "[10]": {"system": "DIGSA", "assay": "A. Herbicidal pre-emergence action on harmful plants (Tables A)", "format": "in vivo, Digitaria sanguinalis", "how_it_was_run": "as §1"}, "[11]": {"system": "ABUTH", "assay": "B. Herbicidal post-emergence action on harmful plants (Tables B)", "format": "in vivo, Abutilon theophrasti", "conditions": "application rate 1280 g/ha; Table B1a", "method": "(§2) Seeds of mono- and dicotyledonous weed plants were placed in plastic pots in sandy loam soil (doubly sown with in each case one species of mono- or dicotyledonous weed plants per pot), covered with soil and cultivated in a greenhouse under controlled growth conditions. 2 to 3 weeks after sowing, the test plants were treated at the one-leaf stage. The compounds of the invention, formulated in the form of wettable powders (WP) or as emulsion concentrates (EC), were applied onto the green parts of the plants as aqueous suspension or emulsion with addition of 0.5% additive at a water application rate of 600 liters per hectare (converted). After the test plants had been kept in the greenhouse under optimum growth conditions for about 3 weeks, the activity of the preparations was rated visually in comparison to untreated controls. For example, 100% activity = the plants have died, 0% activity = like control plants. Tables B1 to B12, below, show the effects of selected compounds of the general formula (I) according to table 1 on various harmful plants and an application rate corresponding to 1280 g/ha or below obtained by the experimental procedure mentioned above. Table B1a: post-emergence activity at 1280g/ha against ABUTH in %"}, "[12]": {"system": "ECHCG", "assay": "B. Herbicidal post-emergence action on harmful plants (Tables B)", "format": "in vivo, Echinochloa crus-galli", "conditions": "application rate 1280 g/ha; Table B2a", "how_it_was_run": "(§3)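 Greenhouse weeds grown in sandy loam were sprayed post-emergence at the one-leaf stage, 2-3 weeks after sowing. Compounds were applied as WP or EC in water with 0.5% additive at 600 L/ha, at 1280 g/ha or below. Visual damage was rated after about 3 weeks versus untreated plants (0-100%).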"}, "[13]": {"system": "MATIN", "assay": "B. Herbicidal post-emergence action on harmful plants (Tables B)", "format": "in vivo, Matricaria inodora", "method": "as §2"}, "[14]": {"system": "POAAN", "assay": "B. Herbicidal post-emergence action on harmful plants (Tables B)", "format": "in vivo, Poa annua", "how_it_was_run": "as §3"}, "[15]": {"system": "VERPE", "assay": "B. Herbicidal post-emergence action on harmful plants (Tables B)", "format": "in vivo, Veronica persica", "conditions": "application rate 1280 g/ha; Table B11a", "how_it_was_run": "as §3"}, "[16]": {"system": "DIGSA", "assay": "B. Herbicidal post-emergence action on harmful plants (Tables B)", "format": "in vivo, Digitaria sanguinalis", "conditions": "application rate 1280 g/ha; Table B12a", "method": "as §2"}}}
{"smiles": "COCc1nn(C)cc1C(=O)N1CCCC1Cc1cccc(F)c1F", "note": "(racemic) [Example I-077]", "values": [{"measurement": "pre-emergence activity against ECHCG", "setting": "[1]; application rate 80 g/ha", "result": 90, "unit": "%"}, {"measurement": "pre-emergence activity against ECHCG", "setting": "[1]; application rate 320 g/ha", "result": 90, "unit": "%"}, {"measurement": "pre-emergence activity against ECHCG", "setting": "[1]; application rate 1280 g/ha", "result": 100, "unit": "%"}, {"measurement": "pre-emergence activity against LOLRI", "setting": "[2]; application rate 320 g/ha", "result": 90, "unit": "%"}, {"measurement": "pre-emergence activity against LOLRI", "setting": "[2]; application rate 1280 g/ha", "result": 100, "unit": "%"}, {"measurement": "pre-emergence activity against MATIN", "setting": "[3]; application rate 320 g/ha", "result": 90, "unit": "%"}, {"measurement": "pre-emergence activity against MATIN", "setting": "[3]; application rate 1280 g/ha", "result": 90, "unit": "%"}, {"measurement": "pre-emergence activity against SETVI", "setting": "[4]; application rate 320 g/ha", "result": 90, "unit": "%"}, {"measurement": "pre-emergence activity against SETVI", "setting": "[4]; application rate 1280 g/ha", "result": 90, "unit": "%"}, {"measurement": "pre-emergence activity against STEME", "setting": "[5]; application rate 80 g/ha", "result": 90, "unit": "%"}, {"measurement": "pre-emergence activity against STEME", "setting": "[5]; application rate 320 g/ha", "result": 90, "unit": "%"}, {"measurement": "pre-emergence activity against STEME", "setting": "[5]; application rate 1280 g/ha", "result": 90, "unit": "%"}, {"measurement": "pre-emergence activity against POAAN", "setting": "[6]; application rate 80 g/ha, Table A7c", "result": 100, "unit": "%"}, {"measurement": "pre-emergence activity against POAAN", "setting": "[6]; application rate 320 g/ha, Table A7b", "result": 100, "unit": "%"}, {"measurement": "pre-emergence activity against POAAN", "setting": "[6]; application rate 1280 g/ha, visual grading after ca. 3 weeks vs untreated controls, 100% = plants have died off, 0% = as control plants", "result": 100, "unit": "%"}, {"measurement": "pre-emergence activity against AMARE", "setting": "[7]", "result": 90, "unit": "%"}, {"measurement": "pre-emergence activity against ALOMY", "setting": "[8]; application rate 320 g/ha, Table A9b", "result": 90, "unit": "%"}, {"measurement": "pre-emergence activity against ALOMY", "setting": "[8]; application rate 1280 g/ha, Table A9a", "result": 90, "unit": "%"}, {"measurement": "pre-emergence activity against VERPE", "setting": "[9]", "result": 90, "unit": "%"}, {"measurement": "pre-emergence activity against DIGSA", "setting": "[10]; application rate 320 g/ha, Table A12b", "result": 100, "unit": "%"}, {"measurement": "pre-emergence activity against DIGSA", "setting": "[10]; application rate 1280 g/ha, Table A12a", "result": 100, "unit": "%"}, {"measurement": "post-emergence activity against ABUTH", "setting": "[11]", "result": 90, "unit": "%"}, {"measurement": "post-emergence activity against ECHCG", "setting": "[12]", "result": 90, "unit": "%"}, {"measurement": "post-emergence activity against MATIN", "setting": "[13]; application rate 320 g/ha, Table B4b", "result": 90, "unit": "%"}, {"measurement": "post-emergence activity against MATIN", "setting": "[13]; application rate 1280 g/ha, Table B4a", "result": 90, "unit": "%"}, {"measurement": "post-emergence activity against POAAN", "setting": "[14]; application rate 320 g/ha, Table B7b", "result": 90, "unit": "%"}, {"measurement": "post-emergence activity against POAAN", "setting": "[14]; application rate 1280 g/ha, Table B7a", "result": 90, "unit": "%"}, {"measurement": "post-emergence activity against VERPE", "setting": "[15]", "result": 90, "unit": "%"}, {"measurement": "post-emergence activity against DIGSA", "setting": "[16]", "result": 90, "unit": "%"}]}
